Data from US4232035A, “Carbamate pesticidal compounds compositions and methods of use” (priority 1975, dated 1980).

Legend:
Assay type in all cases: in vivo
[1] = test system: bean aphid (Aphis fabae Scop.); experiment: Bean Aphid Foliage Spray Test; set-up: key: A: excellent control; B: partial control; C: no control; settings: 500 parts per million foliage spray; 24 hour holding period
Experimental: (§1) Suspensions of the test compounds were prepared by dissolving one gram of compound in 50 milliliters of acetone in which had been dissolved 0.1 gram (10 percent of the weight of compound) of an alkylphenoxy polyethoxyethanol surfactant, as an emulsifying or dispersing agent. The resulting solution was mixed into 150 milliliters of water to give roughly 200 milliliters of a suspension containing the compound in finely divided form. The thus-prepared stock suspension contained 0.5 percent by weight of compound. The test concentrations in parts per million by weight employed in the tests described hereinbelow were obtained by appropriate dilutions of the stock suspension with water. The test procedures were as follows:
Adults and nymphal stages of the bean aphid (Aphis fabae Scop.) reared on potted dwarf nasturtium plants at 65°-70° F. and 50-70 percent relative humidity, constituted the test insects. For testing purposes, the number of aphids per pot was standardized to 100-150 by trimming plants containing excess aphids.
The test compounds were formulated by diluting the stock suspension with water to give a suspension containing 500 parts of test compound per million parts of final formulation.
The potted plants (one pot per compound tested) infested with 100-150 aphids, were placed on a revolving turntable and sprayed with 100-110 milliliters of test compound formulation by use of a DeVilbiss spray gun set at 40 psig. air pressure. This application, which lasted 25 seconds, was sufficient to wet the plants to run-off. As a control, 100-110 milliliters of a water-acetone-emulsifier solution containing no test compound were also sprayed on infested plants. After spraying, the pots were placed on their sides on a sheet of white standard mimeograph paper which had been previously ruled to facilitate counting. Temperature and humidity in the test room during the 24 hour holding period were 65°-70° F. and 50-70 percent, respectively. Aphids which fell onto the paper and were unable to remain standing after being uprighted were considered dead. Aphids remaining on the plants were observed closely for movement and those which were unable to move the length of the body upon stimulation by prodding were considered dead. Percent mortality was recorded for various concentration levels.

[2] = test system: two-spotted mite (Tetranychus urticae Koch); experiment: Mite Foliage Spray Test; set-up: key: A: excellent control; B: partial control; C: no control; settings: 500 parts per million foliage spray; six days
Experimental: as §1
Adults and nymphal stages of the two-spotted mite (Tetranychus urticae Koch), reared on Tendergreen bean plants at 80±5 percent relative humidity, were the test organisms. Infested leaves from a stock culture were placed on the primary leaves of two bean plants six to eight inches in height, growing in a two-and-a-half inch clay pot. 150-200 Mites, a sufficient number for testing, transferred from the excised leaves to the fresh plants in a period of twenty four hours. Following the twenty four hour transfer period, the excised leaves were removed from the infested plants. The test compounds were formulated by diluting the stock suspension with water to give a suspension containing 500 parts of test compound per million parts of final formulation. The potted plants (one pot per compound) were placed on a revolving turntable and sprayed with 100-110 milliliters of test compound formulation by use of a DeVilbiss spray gun set at 40 psig. air pressure. This application, which lasted 25 seconds, was sufficient to wet the plants to run-off. As a control, 100-110 milliliters of a water solution containing acetone and emulsifier in the same concentrations as the test compound formulation, but containing no test compound, were also sprayed on infested plants. The sprayed plants were held at 80±5 percent relative humidity for six days, after which a mortality count of motile forms was made. Microscopic examination for motile forms was made on the leaves of the test plants. Any individual which was capable of locomotion upon prodding was considered living.

[3] = test system: southern armyworm (Prodenia eridania, (Cram.)); experiment: Southern Armyworm Leaf Spray Test; set-up: key: A: excellent control; B: partial control; C: no control; settings: 500 parts per million leaf spray; three days
Experimental: as §1
Larvae of the southern armyworm (Prodenia eridania, (Cram.)), reared on Tendergreen bean plants at a temperature of 80°±5° F. and a relative humidity of 50±5 percent, constituted the test insects.
The test compounds were formulated by diluting the stock suspension with water to give a suspension containing 500 parts of test compound per million parts of final formulation. Potted Tendergreen bean plants of standard height and age were placed on a revolving turntable and sprayed with 100-110 milliliters of test compound formulation by use of a DeVilbiss spray gun set at 10 psig air pressure. This application, which lasted 25 seconds, was sufficient to wet plants to run-off. As a control, 100-110 milliliters of a water-acetone-emulsifier solution containing no test compound were also sprayed on infested plants. When dry, the paired leaves were separated and each one was placed in a 9 centimeter Petri dish lined with moistened filter paper. Five randomly selected larvae were introduced into each dish and the dishes were closed. The closed dishes were labeled and held at 80°-85° F. for three days. Although the larvae could easily consume the whole leaf within twenty-four hours, no more food was added. Larvae which were unable to move the length of the body, even upon stimulation by prodding, were considered dead. Percent mortality was recorded for various concentration levels.

[4] = test system: Mexican bean beetle (Epilachna varivestis, Muls.); experiment: Mexican Bean Beetle Leaf Spray Test; set-up: key: A: excellent control; B: partial control; C: no control; settings: 500 parts per million leaf spray; fourth instar larvae; three days
Experimental: as §1
Fourth instar larvae of the Mexican bean beetle (Epilachna varivestis, Muls.), reared on Tendergreen bean plants at a temperature of 80°±5° F. and 50±5 percent relative humidity, were the test insects.
The test compounds were formulated by diluting the stock suspension with water to give a suspension containing 500 parts of test compound per million parts of final formulation. Potted Tendergreen bean plants of standard height and age were placed on a revolving turntable and sprayed with 100-110 milliliters of test compound formulation by use of a DeVilbiss spray gun set at 10 psig air pressure. This application, which lasted 25 seconds, was sufficient to wet plants to run-off. As a control, 100-110 milliliters of a water-acetone-emulsifier solution containing no test compound were also sprayed on infested plants. When dry, the paired leaves were separated and each was placed in a 9 centimeter Petri dish lined with moistened filter paper. Five randomly selected larvae were introduced into each dish, and the dishes were closed. The closed dishes were labeled and held at a temperature of 80°±5° F. for three days. Although the larvae could easily consume the leaf within 24 to 48 hours, no more food was added. Larvae which were unable to move the length of the body, even upon stimulation, were considered dead.

[5] = test system: house flies (Musca domestica, L.); experiment: Fly Bait Test; set-up: key: A: excellent control; B: partial control; C: no control; settings: 500 parts per million bait in sugar solution; twenty four hours
Experimental: as §1
Four to six day old adult house flies (Musca domestica, L.) reared according to the specifications of the Chemical Specialties Manufacturing Association (Blue Book, McNair-Dorland Co., N.Y. 1954; pages 243-244, 261) under controlled conditions of 80°±5° F. and 50±5 percent relative humidity, were the test insects. The flies were immobilized by anesthetizing with carbon dioxide and twenty five immobilized individuals, males and females, were transferred to a cage consisting of a standard food strainer about five inches in diameter which was inverted over a wrapping-paper-covered surface. The test compounds were formulated by diluting the stock suspension with a 10 percent (by weight) sugar solution to give a suspension containing 500 parts of test compound per million parts of final formulation, by weight. Ten milliliters of the test formulation were added to a souffle cup containing a one-inch square of an absorbent cotton pad. This bait cup was introduced and centered on the blotting paper under the food strainer prior to admitting the anesthetized flies. The caged flies were allowed to feed on the bait for twenty four hours, at a temperature of 80°±5° F. and the relative humidity of 50±5 percent.

[6] = test system: root-knot nematode (Meloidogyne incognita var. acrita); experiment: Nematode Test; set-up: key: 1: severe galling; equal to untreated control; 2: moderate galling; 3: light galling; 4: very light galling; 5: no galling; settings: 10 ml of 500 parts per million formulation per jar of soil; cucumber indicator crop, approximately three weeks
Experimental: as §1
Infective migratory larvae of the root-knot nematode, (Meloidogyne incognita var. acrita) were reared in the greenhouse on roots of Rutgers variety tomato plant. Infected tomato plants were removed from the culture and the roots were chopped very finely. A small amount of inoculum from the roots was added to pint Mason jars containing approximately 180 cc of soil. The jars containing the inoculum and soil were capped and incubated for one week at room temperature. During this period eggs of the nematode hatched and the larvae forms migrated into the soil.
The test compounds were formulated by diluting the stock suspension with water to give a suspension containing 500 parts of test compound per million parts of final formulation. 10 milliliters of the test formulation was added to each of two jars for each dosage treated. As a control 10 milliliters of a water-acetone-emulsifier solution containing no test compound was also added to jars containing nematode larvae. The jars were capped and the contents thoroughly mixed on a kale mill for five minutes. The jars remained capped at room temperature for a period of 48 hours and the contents were then transferred to 3 inch pots. Subsequently, the pots were seeded to cucumber as an indicator crop and placed in the green house where they were cared for in the normal fashion for growing potted cucumber for approximately three weeks. These cucumber plants were then removed from the pots, the soil washed from the roots and the amount of galling visually rated.

## Cc1ccc(SSN(C)C(=O)ON=C2SCOC2C)cc1 (stereo not drawn)
[1]
  Aphid, pesticidal activity rating: A
[2]
  Mite, pesticidal activity rating: A
[3]
  S. Armyworm, pesticidal activity rating: A
[4]
  M. Bean Beetle, pesticidal activity rating: A
[5]
  H. Fly, pesticidal activity rating: A
[6]
  Nematodes, nematocidal toxicity rating (galling): 1
